Like-named read-outs stand apart in the source and are kept apart here.
Columns and labels:
[1] = tested on: pERK levels in CD3-positive lymphocytes; experiment: Inhibition of ERK phosphorylation in peripheral blood mononuclear cells (ex vivo stimulation assay, flow cytometry); parameters: species or system human; conditions: for Emax: Homo sapiens, Lymphocyte
Method: The extent of ERK phosphorylation in peripheral blood mononuclear cells was determined using an ex vivo stimulation assay; pERK levels in CD3-positive lymphocytes were measured by flow cytometry assessing mean fluorescence (MEFL) under phorbol myristate acetate (PMA)-stimulated and unstimulated conditions. Mean percent change from baseline in blood pERK level over time was determined following single and multiple doses of TAK-733. Noncompartmental analyses, using WinNonlin version 6.1 or higher (Pharsight, Cary, NC), in pharmacodynamic-evaluable patients were used to determine the following pharmacodynamic parameters for inhibition of ERK phosphorylation: maximum observed effect (Emax), time to Emax (TEmax), area under the effect (inhibition)–time curve over the dosing interval (AUEC(0-τ)), and average effect over the dosing interval (Eav).

[2] = tested on: BRAF V600E-mutant cutaneous melanoma cell lines; conditions: high proportion of BRAF V600E-mutant cutaneous melanoma cell lines; read-out: IC50 (high sensitivity); cited from earlier work
[3] = tested on: xenograft model; conditions: single-agent TAK-733, cited from earlier work
[4] = MTD of 16 mg, day 21 of cycle 1, stated as inhibition

## Cn1c(=O)c(F)c(Nc2ccc(I)cc2F)c2c(=O)n(C[C@@H](O)CO)cnc21 [TAK-733]
[1]; 0.8 mg, day 1
  AUEC(0-τ) Mean (SD): –450 (60) h*%
  Eav Mean (SD): –19.3 (2.0) %
  TEmax Median (range): 3.0 (2–4) h
[1]; 0.8 mg, day 21
  TEmax Median (range): 3.0 (2–4) h
[1]; 1.6 mg, day 1
  AUEC(0-τ) Mean (SD): –1175 (134) h*%
  Eav Mean (SD): –47 (8.2) %
  TEmax Median (range): 4.0 (4–4) h
[1]; 1.6 mg, day 21
  AUEC(0-τ) Mean (SD): –1020 h*%
  Eav Mean (SD): –42.2%
[1]; 3.2 mg, day 1
  AUEC(0-τ) Mean (SD): –643 (405) h*%
  Eav Mean (SD): –26.9 (16.9) %
  TEmax Median (range): 1.1 (1–4) h
[1]; 3.2 mg, day 21
  AUEC(0-τ) Mean (SD): –785 h*%
  Eav Mean (SD): –31.6%
[1]; 4.4 mg, day 1
  AUEC(0-τ) Mean (SD): –542 (492) h*%
  Eav Mean (SD): –22.5 (20.5) %
  TEmax Median (range): 1.5 (1–2) h
[1]; 4.4 mg, day 21
  AUEC(0-τ) Mean (SD): –164 (447) h*%
  Eav Mean (SD): –6.4 (18.3) %
  TEmax Median (range): 2.0 (2–4) h
[1]; 6 mg, day 1
  AUEC(0-τ) Mean (SD): –397 (458) h*%
  Eav Mean (SD): –16.5 (18.9) %
  TEmax Median (range): 4.0 (1–4) h
[1]; 6 mg, day 21
  AUEC(0-τ) Mean (SD): 29 (464) h*%
  Eav Mean (SD): 0.7 (18.7) %
[1]; 8.4 mg, day 1
  AUEC(0-τ) Mean (SD): –981 (624) h*%
  Eav Mean (SD): –41.6 (26.5) %
  TEmax Median (range): 3.0 (1–8) h
[1]; 8.4 mg, day 21
  AUEC(0-τ) Mean (SD): –937 (811) h*%
  Eav Mean (SD): –39.7 (34.2) %
  TEmax Median (range): 2.1 (1–4) h
[1]; 11.8 mg, day 1
  AUEC(0-τ) Mean (SD): –971 (241) h*%
  Eav Mean (SD): –40.5 (10.0) %
  TEmax Median (range): 4.1 (4–8) h
[1]; 11.8 mg, day 21
  AUEC(0-τ) Mean (SD): –1900 h*%
  Eav Mean (SD): –78.1%
  TEmax Median (range): 2.2 (2.1–2.3) h
[1]; 16 mg, day 1
  AUEC(0-τ) Mean (SD): –948 (624) h*%
  Eav Mean (SD): –40.1 (26.3) %
  TEmax Median (range): 4.0 (2–8) h
[1]; 16 mg, day 21
  AUEC(0-τ) Mean (SD): –1947 (125) h*%
  Eav Mean (SD): –82.4 (5.5) %
  TEmax Median (range): 4.6 (4–24) h
[1]; 22 mg, day 1
  AUEC(0-τ) Mean (SD): –1517 (257) h*%
  Eav Mean (SD): –64.5 (11.3) %
  TEmax Median (range): 7.6 (1–8) h
[1]; 22 mg, day 21
  AUEC(0-τ) Mean (SD): –1615 (288) h*%
  Eav Mean (SD): –66.7 (11.7) %
  TEmax Median (range): 3.1 (1–8) h
[1]; 24 h, 0.8 mg, day 1, % change from baseline in pERK, read-out: Emax Mean (SD)
  Emax: -40.5%
[1]; 24 h, 1.6 mg, day 1, % change from baseline in pERK, read-out: Emax Mean (SD)
  Emax: -61.3%
[1]; 24 h, 3.2 mg, day 1, % change from baseline in pERK, read-out: Emax Mean (SD)
  Emax: -41.2%
[1]; 24 h, 4.4 mg, day 1, % change from baseline in pERK, read-out: Emax Mean (SD)
  Emax: -49.2%
[1]; 24 h, 6 mg, day 1, % change from baseline in pERK, read-out: Emax Mean (SD)
  Emax: -59.8%
[1]; 24 h, 8.4 mg, day 1, % change from baseline in pERK, read-out: Emax Mean (SD)
  Emax: -64.5%
[1]; 24 h, 11.8 mg, day 1, % change from baseline in pERK, read-out: Emax Mean (SD)
  Emax: -61.3%
[1]; 24 h, 16 mg, day 1, % change from baseline in pERK, read-out: Emax Mean (SD)
  Emax: -77.3%
[1]; 24 h, 22 mg, day 1, % change from baseline in pERK, read-out: Emax Mean (SD)
  Emax: -84.1%
[1]; 504 h, 0.8 mg, day 21, % change from baseline in pERK, read-out: Emax Mean (SD)
  Emax: -39.2%
[1]; 504 h, 1.6 mg, day 21, % change from baseline in pERK, read-out: Emax Mean (SD)
  Emax: -43%
[1]; 504 h, 3.2 mg, day 21, % change from baseline in pERK, read-out: Emax Mean (SD)
  Emax: -66.8%
[1]; 504 h, 4.4 mg, day 21, % change from baseline in pERK, read-out: Emax Mean (SD)
  Emax: -28%
[1]; 504 h, 6 mg, day 21, % change from baseline in pERK, read-out: Emax Mean (SD)
  Emax: -64%
[1]; 504 h, 8.4 mg, day 21, % change from baseline in pERK, read-out: Emax Mean (SD)
  Emax: -63.8%
[1]; 504 h, 11.8 mg, day 21, % change from baseline in pERK, read-out: Emax Mean (SD)
  Emax: -79.3%
[1]; 504 h, 16 mg, day 21, % change from baseline in pERK, read-out: Emax Mean (SD)
  Emax: -84.7%
[1]; 504 h, 22 mg, day 21, % change from baseline in pERK, read-out: Emax Mean (SD)
  Emax: -82.9%
[1]; 504 h, MTD of 16 mg, day 21 of cycle 1, stated as inhibition, read-out: mean Emax
  Emax: 85%
[1]; 504 h, day 21, doses of 8.4 mg and above, read-out: maximum decrease in pERK (Emax)
  Emax: 46 to 97%
[1]; [4]
  mean AUEC(0-τ): 1947 h* %
  mean Eav: 82%
[1]; day 21 of cycle 1, doses of less than 8.4 mg
  duration of pERK decreases: relatively transient
[1]; day 21 of cycle 1, higher doses (8.4 mg and above)
  duration of target inhibition: > 4 h
[2]
  IC50: < 100 nM
[3]
  exposures associated with stasis in the most sensitive xenograft model: 861 to 1065 ng·h/mL
[3]; xenograft models
  time-averaged inhibition of ERK phosphorylation associated with tumor stasis: 76–89%
